Assays:
[1] = target: T1, human TRPM8 (Homo sapiens, UniProt Q7Z2W7); assay: Evaluation of human TRPM8 activity (cool-feeling intensity), calcium fluorescence in stable expression cells; assay type: cell-based; details: Fluo4-AM, 32° C., read-out: EC50 value in TRPM8 activation action
T1 construct: The full-length human TRPM8 gene was amplified from plasmid RC220615 (manufactured by Origene) using a PCR method; host or cells: Flp-In T-REx 293 cells ('Flp-In293293 cells' [sic]), pcDNA5/FRT/TO, doxycycline-induced
Protocol: It is common that a compound having a cooling effect such as menthol generally induces a cool-feeling by activating melastatin transient receptor potential channel 8 (TRPM8) as a cold stimulation receptor (for example, see J. Neurobiol. (2004), Vol. 61, PP. 3-12). Therefore, in order to evaluate the cool-feeling intensity, EC50 values of the exemplary compounds obtained in the Examples in TRPM8 activation actions were evaluated according to the following procedures.
The full-length human TRPM8 gene was amplified from plasmid RC220615 (manufactured by Origene) using a PCR method. The obtained PCR product was subcloned into pcDNA5/FRT/TO (manufactured by Thermo Fisher Scientific K.K.), and then it was introduced into Flp-In293293 cells (manufactured by Thermo Fisher Scientific K.K.) by using a Flp-InT-REx system (manufactured by Thermo Fisher Scientific K.K.), so that a human TRPM8 stable expression cell line was prepared.
The cultured human TRPM8 stable expression cells were seeded at a ratio of 50,000 cells/well to a poly-D-lysine-coated 96-well microplate (manufactured by Corning Incorporated), 1 μg/mL of doxycycline (manufactured by Takara Bio Inc.) was added thereto, and then the seeded cells were cultured at 37° C. for one night, so that the expression of the human TRPM8 was induced.
The culture solution was replaced with a buffer solution, and then, a fluorescent calcium indicator (Fluo4-AM: manufactured by Dojindo) was added thereto, the cells were incubated at 37° C. for 30 minutes, and they were transferred to a fluorescent microplate reader (FlexStation3: Molecular Devices, LLC.). Exemplary compounds were added in a final concentration range of 0.1 μM to 1000 μM, and the changes in fluorescence having a wavelength of 525 nm when excited at a wavelength of 485 nm were measured at a device temperature of 32° C., so as to calculate EC50 values.

[2] = Sensory evaluation of 30 ppm aqueous solution by three flavorists; assay type: in vivo, human; details: for intensity of cool-feeling: mouth rinsed and spat out; for intensity of cool-feeling compared with comparative compounds: 30 ppm aqueous solutions
Protocol: The sensory evaluation was performed by comparing the exemplary compound (1-1) with the so far known comparative compounds 1 to 4. Comparative compounds 1, 3, and 4 were synthesized according to the method described in WO 2016/153011 A1, and comparative compound 2 was synthesized according to the method described in WO 2005/020897 A1. The exemplary compound (1-1) and comparative compounds 1 to 4 were separately prepared into a 30 ppm aqueous solution, and the aqueous solution was used to perform the evaluation.
The evaluation was performed by three flavorists. The aqueous solution was taken into the mouth and spat out after the mouth was rinsed, and intensity, persistence, and quality of a cool-feeling in the oral cavity were evaluated.
A 30 ppm aqueous solution of the exemplary compound (1-2) was prepared and used to perform the evaluation.
A 30 ppm aqueous solution of the exemplary compound (1-3) was prepared and used to perform the evaluation.
A 30 ppm aqueous solution of the exemplary compound (1-5) was prepared and used to perform the evaluation.

T1 sequence (Q7Z2W7 whole entry): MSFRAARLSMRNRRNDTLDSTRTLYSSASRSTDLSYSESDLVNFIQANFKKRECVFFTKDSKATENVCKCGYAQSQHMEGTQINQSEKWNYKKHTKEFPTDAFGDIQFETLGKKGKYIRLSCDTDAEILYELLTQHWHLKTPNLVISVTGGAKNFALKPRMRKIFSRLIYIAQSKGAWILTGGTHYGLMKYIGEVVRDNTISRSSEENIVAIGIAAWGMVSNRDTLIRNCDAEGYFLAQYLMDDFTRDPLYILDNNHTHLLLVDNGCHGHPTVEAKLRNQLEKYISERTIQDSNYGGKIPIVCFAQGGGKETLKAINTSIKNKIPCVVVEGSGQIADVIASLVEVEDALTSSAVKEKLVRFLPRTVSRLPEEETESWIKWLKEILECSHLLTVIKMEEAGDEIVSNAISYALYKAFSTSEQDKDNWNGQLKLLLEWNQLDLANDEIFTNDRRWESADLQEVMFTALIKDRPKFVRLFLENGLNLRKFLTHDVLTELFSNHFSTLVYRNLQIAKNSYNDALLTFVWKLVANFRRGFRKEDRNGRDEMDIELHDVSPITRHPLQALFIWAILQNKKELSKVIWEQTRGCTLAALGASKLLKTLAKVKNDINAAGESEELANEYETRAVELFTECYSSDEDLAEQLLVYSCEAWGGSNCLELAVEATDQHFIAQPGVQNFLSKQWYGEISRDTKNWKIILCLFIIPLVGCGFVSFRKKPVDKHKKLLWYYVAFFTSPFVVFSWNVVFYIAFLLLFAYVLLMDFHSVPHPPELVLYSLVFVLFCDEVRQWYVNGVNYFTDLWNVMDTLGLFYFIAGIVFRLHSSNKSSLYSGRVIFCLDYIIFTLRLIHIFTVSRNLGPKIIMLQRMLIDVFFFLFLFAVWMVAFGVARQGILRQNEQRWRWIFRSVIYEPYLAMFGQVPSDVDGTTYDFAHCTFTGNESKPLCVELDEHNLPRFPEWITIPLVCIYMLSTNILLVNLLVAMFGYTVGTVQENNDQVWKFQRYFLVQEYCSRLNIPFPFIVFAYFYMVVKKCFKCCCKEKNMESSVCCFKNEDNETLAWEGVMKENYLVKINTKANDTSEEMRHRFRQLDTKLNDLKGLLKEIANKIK

Row | Structure (SMILES) | EC50 [1] [nM] | melting point [°C] | further results
1 | CC(C)C1CCC(C)(C)CC1C(=O)NCC(O)c1ccccc1 (stereo not shown) [1-1] | 41 | – | –
2 | CC(C)C1CCC(C)(C)CC1C(=O)NC[C@@H](O)c1ccccc1 (stereo partly shown) [1-2] | 24.1 | – | –
3 | CC(C)C1CCC(C)(C)CC1C(=O)NC[C@H](O)c1ccccc1 (stereo partly shown) [1-3] | 73.6 | – | –
4 | CC(=O)OC(CNC(=O)C1CC(C)(C)CCC1C(C)C)c1ccccc1 (stereo not shown) [1-4] | 541 | – | –
5 | CC(C)C1CCC(C)(C)CC1C(=O)NCC(=O)c1ccccc1 (stereo not shown) [1-5] | 149 | – | –
6 | CC(CNC(=O)C1CC(C)(C)CCC1C(C)C)c1ccccc1 (stereo not shown) [1-6] | 388 | – | –
7 | CC(C)C1CCC(C)(C)CC1C(=O)NC[C@@H](C)c1ccccc1 (stereo partly shown) [1-7] | 555 | – | –
8 | CC(C)C1CCC(C)(C)CC1C(=O)NC[C@H](C)c1ccccc1 (stereo partly shown) [1-8] | 610 | – | –
9 | CC(C)C1CCC(C)(C)CC1C(=O)NCCc1ccc(O)cc1 (stereo not shown) [1-9] | 29.8 | – | –
10 | COc1ccc(CCNC(=O)C2CC(C)(C)CCC2C(C)C)cc1 (stereo not shown) [1-10] | 158 | – | –
11 | CC(C)C1CCC(C)(C)CC1C(=O)NCCc1ccc(O)c(O)c1 (stereo not shown) [1-11] | 113 | – | –
12 | COc1ccc(CCNC(=O)C2CC(C)(C)CCC2C(C)C)cc1OC (stereo not shown) [1-12] | 403 | – | –
13 | CC(C)C1CCC(C)(C)CC1C(=O)NCCc1ccccc1 (stereo not shown) [1-13] | 50.2 | – | –
14 | CC(C)[C@@H]1CC[C@@H](C)CC1C(=O)NCC(O)c1ccccc1 (stereo partly shown) [Comparative compound 2, reference compound] | – | – | persistence of cool-feeling ([2]; 30 ppm aqueous solution): persistent; intensity of cool-feeling ([2]; 30 ppm aqueous solution): very strong; intensity of cool-feeling compared with comparative compounds [2]: same cooling intensity and persistence as those of the exemplary compound (1-1)
15 | CC(C)C1CCC(C)(C)CC1C(=O)NCC(O)c1ccccc1 (stereo not shown) [Exemplary Compound 1-1, N-(2-hydroxy-2-phenylethyl)-2-isopropyl-5,5-dimethyl cyclohexane carboxamide] | – | – | persistence: cool-feeling lasted for ([2]; 30 ppm aqueous solution): ≥ 60 min; start of the cool-feeling ([2]; 30 ppm aqueous solution): clearly faster than the comparative compounds 1 to 4; intensity of cool-feeling ([2]; 30 ppm aqueous solution): very strong; intensity of cool-feeling compared with comparative compounds [2]: clearly stronger than those of the comparative compounds 3 and 4
16 | CC(C)C1CCC(C)(C)CC1C(=O)NC[C@@H](O)c1ccccc1 (stereo partly drawn) [Exemplary Compound 1-2, N—((S)-2-hydroxy-2-phenylethyl)-2-isopropyl-5,5-dimethyl cyclohexane carboxamide] | – | – | persistence: cool-feeling lasted for ([2]; 30 ppm aqueous solution): ≥ 90 min; start of the cool-feeling ([2]; 30 ppm aqueous solution): strong cool-feeling was felt when the exemplary compound (1-2) was put in the mouth; intensity of cool-feeling ([2]; 30 ppm aqueous solution): very strong
17 | CC(C)C1CCC(C)(C)CC1C(=O)NC[C@H](O)c1ccccc1 (stereo partly drawn) [Exemplary Compound 1-3, N—((R)-2-hydroxy-2-phenylethyl)-2-isopropyl-5,5-dimethyl cyclohexane carboxamide] | – | – | persistence: cool-feeling lasted for ([2]; 30 ppm aqueous solution): ≥ 60 min; start of the cool-feeling ([2]; 30 ppm aqueous solution): strong cool-feeling was felt when the exemplary compound (1-3) was put in the mouth; intensity of cool-feeling ([2]; 30 ppm aqueous solution): very strong
18 | CC(C)C1CCC(C)(C)CC1C(=O)NCC(=O)c1ccccc1 (stereo not shown) [Exemplary Compound 1-5, 2-isopropyl-5,5-dimethyl-N-(2-oxo-2-phenylethyl) cyclohexane carboxamide] | – | 85 to 88 | persistence: cool-feeling lasted for ([2]; 30 ppm aqueous solution): ≥ 60 min; start of the cool-feeling ([2]; 30 ppm aqueous solution): gradually felt strongly; intensity of cool-feeling ([2]; 30 ppm aqueous solution): very strongly at the peak time
19 | CC(CNC(=O)C1CC(C)(C)CCC1C(C)C)c1ccccc1 (stereo not shown) [Exemplary Compound 1-6, 2-isopropyl-5,5-dimethyl-N-(2-phenylpropyl) cyclohexane carboxamide] | – | 80 to 85 | –
20 | CC(C)C1CCC(C)(C)CC1C(=O)NC[C@@H](C)c1ccccc1 (stereo partly drawn) [Exemplary Compound 1-7, 2-isopropyl-5,5-dimethyl-N—((S)-2-phenylpropyl) cyclohexane carboxamide] | – | 125 to 133 | –
21 | CC(C)C1CCC(C)(C)CC1C(=O)NC[C@H](C)c1ccccc1 (stereo partly drawn) [Exemplary Compound 1-8, 2-isopropyl-5,5-dimethyl-N—((R)-2-phenylpropyl) cyclohexane carboxamide] | – | 127 to 134 | –
22 | CC(C)C1CCC(C)(C)CC1C(=O)NCCc1ccc(O)cc1 (stereo not shown) [Exemplary Compound 1-9, N-(4-hydroxyphenylethyl)-2-isopropyl-5,5-dimethyl cyclohexane carboxamide] | – | 183 to 190 | –
23 | COc1ccc(CCNC(=O)C2CC(C)(C)CCC2C(C)C)cc1 (stereo not shown) [Exemplary Compound 1-10, 2-isopropyl-N-(4-methoxyphenylethyl)-5,5-dimethyl cyclohexane carboxamide] | – | 86 to 88 | –
24 | COc1ccc(CCNC(=O)C2CC(C)(C)CCC2C(C)C)cc1OC (stereo not shown) [Exemplary Compound 1-12, N-(3,4-dimethoxyphenylethyl)-2-isopropyl-5,5-dimethyl cyclohexane carboxamide] | – | 85 to 89 | –
25 | CC(C)C1CCC(C)(C)CC1C(=O)NCCc1ccccc1 (stereo not shown) [Exemplary Compound 1-13, 2-isopropyl-5,5-dimethyl-N-phenylethyl cyclohexane carboxamide] | – | 90 to 93 | –

Reference: patent US11236042B2, “Methylmenthol derivative and cool-sensation imparter composition containing same” (TAKASAGO INTERNATIONAL CORPORATION, priority 2017, dated 2022)
